The values below come from paper PMC5643073 (ACS combinatorial science, 2017).

One data set is described as follows: in vitro. Conditions: human.
The nature of a further data set: Cytotoxicity assay. The settings on record: human, HEK293T cells.

SMILES strings stand for the structures. A value given as a limit tells only on which side of the number the result lay.

`Cc1cc(SCc2sc(-c3ccc(C(F)(F)F)cc3)nc2C)ccc1OCC(=O)O` [Compound 13] had a CC50 at 18 h in the data set “in vitro” of over 33 µM.
As for `Cc1cc(SCc2sc(-c3ccc(C(F)(F)F)c(F)c3)nc2C)ccc1OCC(=O)O` [Compound 31], the CC50 at 18 h in “Cytotoxicity assay” is over 50 µM.
